US20260028342A1, “ENHANCING ANTIMETASTASIS ACTIVITY USING TARGETED PROTEIN DEGRADATION” (THE UNIVERSITY OF NORTH CAROLINA AT CHAPEL HILL, priority 2022, published 2026)
Entries after “also recorded” stand apart in the source; their conditions may differ. Read-outs that look alike come from different tables or passages of the source.

Assays:
eEF1A2 [1] = biological target: T1, eEF1A2 (Homo sapiens, UniProt Q05639); assay: Competition with anchored biotinylated metarrestin-eEF1A2 complex; assay type: binding; conditions: FIG. 3A
T1 construct: Compound 49 treatment for 20 hours reduced eEF1A2 by Western blot analysis; endogenous in cells
T1 sequence (Q05639 1-463): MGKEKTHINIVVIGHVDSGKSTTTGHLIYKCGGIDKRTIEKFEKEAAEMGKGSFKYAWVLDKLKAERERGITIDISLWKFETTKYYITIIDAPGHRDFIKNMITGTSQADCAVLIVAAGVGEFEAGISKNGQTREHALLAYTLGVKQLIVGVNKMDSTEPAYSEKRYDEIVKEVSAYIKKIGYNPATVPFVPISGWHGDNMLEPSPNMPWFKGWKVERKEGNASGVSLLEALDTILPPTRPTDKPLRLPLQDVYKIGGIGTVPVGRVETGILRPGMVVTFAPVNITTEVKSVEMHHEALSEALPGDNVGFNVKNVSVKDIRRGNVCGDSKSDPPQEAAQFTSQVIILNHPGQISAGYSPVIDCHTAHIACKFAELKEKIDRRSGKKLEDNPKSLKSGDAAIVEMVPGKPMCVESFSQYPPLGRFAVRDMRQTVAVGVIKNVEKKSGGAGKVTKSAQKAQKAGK
Description: (§1) FIGS. 3A-3E show metarrestin binding and cellular data. FIG. 3A presents data showing that metarrestin specifically binds eEF1A2, and increased eEF1A2 enhances PNCs and metastasis formation. […] Mice from both groups were harvested six weeks after implantation and subjected to necropsy. […] Histopathological images (H&E) of livers (black scale bar=250 μm, white scale bar=100 μm) are shown on the right. Insets depict representative metastatic lesions.
(§2) With respect to the metarrestin target eEF1A2, the biased expression of eEF1A2 in cancer cells over normal adult cells (except neuronal cells) was used to selectively target cancer cells. […] Increased eEF1A2 enhances PNC number per cell (FIG. 3C) and metastasis formation (FIG. 3E). […] Expression of eEF1A2 is associated with cancer metastasis and correlates with poor patient outcomes.

PANC1 [2] = assay: Orthotopic mouse model with 3-D cultured PANC1 cells (metastasis); assay type: in vivo
Method: (§3) FIGS. 2A-2F show metarrestin and various studies.
(§4) Using a high-content screen to measure reduction of PNC prevalence, noncytotoxic PNC inhibitor hit compounds were discovered such as metarrestin, (FIG. 2A). […] Metarrestin was further evaluated in xenograft models of PC3M (metastatic prostate cancer cell line) and in a breast cancer patient-derived xenograft (PDX, harvested from a lung metastasis site). […] When the survival of the PANC1 tumor-bearing animals was evaluated, two sets of experiments were performed to determine efficacy at two treatment starting points, either after (eight weeks post-inoculation) or prior to (four weeks post-inoculation) macrometastasis had been established.

migration and invasion = conditions: reference [5]; cited from earlier work
eEF1A2 [3] = biological target: T1, eEF1A2; assay: Thermal stability assay using PC3M cell lysate; assay type: binding; conditions: FIG. 3B
Description: as §1, §2

eEF1A2 [4] = biological target: T1, eEF1A2; conditions: similar treatment conditions, reference [5]; cited from earlier work
PNC in HeLa cancer cells = assay: PNC inhibition: IC50 inhibiting PNC in cancer cells (HeLa); assay type: cell-based; conditions: for IC50: Homo sapiens, HeLa cancer cells, inhibiting PNC; for IC50 nucleoli.normal/IC50 PNC.cancer: ratio RPE1 nucleoli IC50 to HeLa PNC IC50; for fold more potent than metarrestin: PNC inhibition, versus metarrestin
Method: PNC inhibitory activity was determined using fluorescent imaging techniques known in the art, such as: a CellTiter-Glo® luminescence assay from Promega to determine cell viability and/or fluorescent imaging studies with an IN Cell Analyzer 1000 automated system in combination with a green fluorescent protein (GFP) tagged PNC localized complex.

[5] = daily treatment for up to three months, animals, reference [5]; cited from earlier work
PANC1 [6] = assay: Survival of PANC1 tumor-bearing animals; assay type: in vivo, mouse; conditions: for animal survival, treatment started post-macrometastasis formation / animal survival, treatment started prior to macrometastasis formation: food pellets, 10 mg/kg daily; for animal survival, treatment started post-macrometastasis formation: start eight weeks post-inoculation, FIG. 2F; for animal survival, treatment started prior to macrometastasis formation: start four weeks post-inoculation, FIG. 2E; for organ tumor replacement at autopsy (liver, lung, pancreas): treatment after macrometastasis, versus regular food pellets, FIG. 2G
Method: as §3, §4

[7] = Large mammal dose-escalation studies; assay type: in vivo; conditions: overloading dosing
Description: Thus, the potential for dose-limiting neurological side effects could constrain the patient population to drug-resistant or late-stage individuals. However, cancer patient outcomes would generally greatly benefit from adjuvant or co-administration use of an anti-metastasis agent such as metarrestin at any stage of cancer. Therefore, in order to improve the cancer cell selectivity and reduce potential toxicity to normal cells, development of next generation metarrestin derivatives that selectively enhance drug efficacy against cancer cells over normal cells were needed.

PNC in PC3M cells = assay: PNC disassembly in PC3M cells with eEF1A2 overexpression; assay type: cell-based; conditions: FIG. 3D
Description: as §1, §2

[8] = tested on: nucleoli in RPE1 normal cells; assay: IC50 disrupting nucleoli in normal cells (RPE1); assay type: cell-based; conditions: Homo sapiens, RPE-1
[9] = tested on: breast cancer patient-derived xenograft; conditions: PDX harvested from a lung metastasis site, reference [5]; cited from earlier work
[10] = reference [29], cited from earlier work
[11] = tested on: PC3M (metastatic prostate cancer cell line); conditions: PC3M xenograft, reference [5]; cited from earlier work
eEF1A2 [12] = biological target: T1, eEF1A2; assay: Western blot analysis of eEF1A2 protein levels; assay type: cell-based; parameters: dose or concentration left out as unconfirmed; conditions: actin loading control, vehicle as standard of one; preliminary
Description: FIGS. 6A and 6B show results from metarrestin-PROTAC studies.

[13] = tested on: PNC prevalence in HeLA cells; assay: Percentage of HeLa cells with PNCs after treatment (FIG. 7); assay type: cell-based
Description: PNC prevalence is correlated with metastatic potential and can be disrupted through modulation of the elongation factor eEF1A.

N=c1c2c(-c3ccccc3)c(-c3ccccc3)n(Cc3ccccc3)c2ncn1[C@H]1CC[C@H](O)CC1 [Metarrestin]
competition of recombinant eEF1A2 binding to anchored biotinylated metarrestin (eEF1A2 [1]): effectively outcompeted | metastasis as organ/tumor ratio in liver and lung (PANC1 [2]; 5 mg/kg and 25 mg/kg, FIG. 2B): inhibits metastasis | metastatic burden in lung and liver (PANC1 [2]; 25 mg/kg IP daily for four weeks): significantly reduced the metastatic burden | primary tumor growth (PANC1 [2]; 25 mg/kg IP daily for four weeks, data not shown): only modest reduction | metastasis as metastatic deposits in liver and lung (PANC1 [2]; 25 mg/kg, FIG. 2C): inhibits metastasis | in vitro anti-oncogenic properties (migration and invasion): migration and invasion inhibition | thermal stabilization of eEF1A2 (eEF1A2 [3]): stabilized eEF1A; also recorded: stabilized eEF1A2 | eEF1A2 protein levels (eEF1A2 [4]): does not reduce the protein levels | IC50 (PNC in HeLa cancer cells): 0.36 µM | IC50 nucleoli.normal/IC50 PNC.cancer (PNC in HeLa cancer cells): 6.25 | adverse effects [5]: does not induce discernable adverse effects | animal survival, treatment started post-macrometastasis formation (PANC1 [6]; 10 mg/kg): significantly improved animal survival | animal survival, treatment started post-macrometastasis formation (PANC1 [6]; listed as metarrestin, 10 mg/kg): effective at extending survival | animal survival, treatment started prior to macrometastasis formation (PANC1 [6]): drastic animal survival advantages | animal survival, treatment started prior to macrometastasis formation (PANC1 [6]; 10 mg/kg): completely prevented metastasis-induced death | organ tumor replacement at autopsy (liver, lung, pancreas) (PANC1 [6]): did not show significant tumor replacement | organ tumor replacement at autopsy (liver, lung, pancreas) (PANC1 [6]; listed as metarrestin): less tumors were present | seizures [7]: reversible seizures | change of IC50 for PNC disassembly on eEF1A2 overexpression (PNC in PC3M cells): increased the IC50 | IC50 [8]: 2.5 µM | metastatic tumor growth [9]: metastatic tumor growth inhibition | half-life ([10]; allows once-a-day dosing): long | tissue distribution [10]: good | organ metastasis [11]: significant inhibition of organ metastasis

O=C1CCC(N2C(=O)c3cccc(NCCCCCNC(=O)c4ccc(Cn5c(-c6ccccc6)c(-c6ccccc6)c6c(NC7CCC(O)CC7)ncnc65)cc4)c3C2=O)C(=O)N1 (stereo not shown) [Compound 49]
IC50 (PNC in HeLa cancer cells): 0.025 µM | fold more potent than metarrestin (PNC in HeLa cancer cells): 14 fold | IC50 nucleoli.normal/IC50 PNC.cancer (PNC in HeLa cancer cells): 4 | eEF1A2 protein levels by Western blot (eEF1A2 [12]): significantly reduced; also recorded: significant reduction | IC50 [8]: 0.1 µM

N=c1c2c(-c3ccccc3)c(-c3ccccc3)n(Cc3cccc(CNC(=O)CCCCCNc4cccc5c4C(=O)N(C4CCC(=O)NC4=O)C5=O)c3)c2ncn1C1CCC(O)CC1 (stereo not shown) [Compound 46]
IC50 (PNC in HeLa cancer cells): 0.11 µM | fold more potent than metarrestin (PNC in HeLa cancer cells): threefold | IC50 nucleoli.normal/IC50 PNC.cancer (PNC in HeLa cancer cells): 4.27 | IC50 [8]: 0.47 µM

N=c1c2c(-c3ccccc3)c(-c3ccccc3)n(Cc3ccccc3)c2ncn1[C@H]1CC[C@H](OC(=O)CCCNc2cccc3c2C(=O)N(C2CCC(=O)NC2=O)C3=O)CC1 (stereo partly shown) [Compound 56]
PNC prevalence (percentage of cells with PNCs) [13]: almost complete disruption of PNC prevalence | PNC prevalence (percentage of cells with PNCs) ([13]; 0.1 μM): measureable reduction in PNC prevalence

N=c1c2c(-c3ccccc3)c(-c3ccccc3)n(Cc3ccccc3)c2ncn1[C@H]1CC[C@H](OC(=O)CCOCCOCCOCCNc2cccc3c2C(=O)N(C2CCC(=O)NC2=O)C3=O)CC1 (stereo partly shown) [Compound 57]
PNC prevalence (percentage of cells with PNCs) [13]: almost complete disruption of PNC prevalence | PNC prevalence (percentage of cells with PNCs) ([13]; 0.1 μM): measureable reduction in PNC prevalence
